Key:
[1] = tested on: Ba/F3 (Δ19del/T790M/C797S) xenograft; test: In vivo efficacy (1): Ba/F3 (Δ19del/T790M/C797S) subcutaneous xenograft (CDX) in BALB/c nude mice; conditions: for TGI (the tumor inhibition value): 45 mg/kg oral daily, 13 consecutive days;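 on all read-outs here: female nude mice, dosing begun at mean tumor size near 80–120 mm^3, tumors measured by caliper twice weekly, volume in mm^3 computed as 0.5×long×short diameter squared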
Description: BALB/c nude mice, female, 6-8 weeks old, 18-20 g of body weight, were housed in SPF-grade environment, and each cage was individually ventilated (5 mice per cage). […] A total of 48 mice purchased from Beijing Weitonglihua company were used for the study. Each mouse was implanted with cells at the right flank, for tumor growth. The experiment was started when the average tumor volume reached approximately 80-120 mm^3. […] Tumor volume was measured twice a week with a two-dimensional caliper, measured in mm^3 and calculated by the following formula: V=0.5a×b^2, wherein a and b are the long and short diameters of the tumor, respectively. Antitumor efficacy was determined by dividing the average increase of the tumor volume of the animals treated with the compound by the average increase of the tumor volume of the untreated animals.

[2] = target: EGFR (Δ19del/T790M/C797S) (Homo sapiens, UniProt P00533, C797S/T790M, form not given); test: Enzyme activity experiment (1): EGFR (Δ19del/T790M/C797S) enzyme inhibition; format: biochemical; conditions: read-out: EGFR (Δ19del/T790M/C797S) IC50
Sequence of EGFR (Δ19del/T790M/C797S) (P00533 25-1210 T790M/C797S limits assumed, form open): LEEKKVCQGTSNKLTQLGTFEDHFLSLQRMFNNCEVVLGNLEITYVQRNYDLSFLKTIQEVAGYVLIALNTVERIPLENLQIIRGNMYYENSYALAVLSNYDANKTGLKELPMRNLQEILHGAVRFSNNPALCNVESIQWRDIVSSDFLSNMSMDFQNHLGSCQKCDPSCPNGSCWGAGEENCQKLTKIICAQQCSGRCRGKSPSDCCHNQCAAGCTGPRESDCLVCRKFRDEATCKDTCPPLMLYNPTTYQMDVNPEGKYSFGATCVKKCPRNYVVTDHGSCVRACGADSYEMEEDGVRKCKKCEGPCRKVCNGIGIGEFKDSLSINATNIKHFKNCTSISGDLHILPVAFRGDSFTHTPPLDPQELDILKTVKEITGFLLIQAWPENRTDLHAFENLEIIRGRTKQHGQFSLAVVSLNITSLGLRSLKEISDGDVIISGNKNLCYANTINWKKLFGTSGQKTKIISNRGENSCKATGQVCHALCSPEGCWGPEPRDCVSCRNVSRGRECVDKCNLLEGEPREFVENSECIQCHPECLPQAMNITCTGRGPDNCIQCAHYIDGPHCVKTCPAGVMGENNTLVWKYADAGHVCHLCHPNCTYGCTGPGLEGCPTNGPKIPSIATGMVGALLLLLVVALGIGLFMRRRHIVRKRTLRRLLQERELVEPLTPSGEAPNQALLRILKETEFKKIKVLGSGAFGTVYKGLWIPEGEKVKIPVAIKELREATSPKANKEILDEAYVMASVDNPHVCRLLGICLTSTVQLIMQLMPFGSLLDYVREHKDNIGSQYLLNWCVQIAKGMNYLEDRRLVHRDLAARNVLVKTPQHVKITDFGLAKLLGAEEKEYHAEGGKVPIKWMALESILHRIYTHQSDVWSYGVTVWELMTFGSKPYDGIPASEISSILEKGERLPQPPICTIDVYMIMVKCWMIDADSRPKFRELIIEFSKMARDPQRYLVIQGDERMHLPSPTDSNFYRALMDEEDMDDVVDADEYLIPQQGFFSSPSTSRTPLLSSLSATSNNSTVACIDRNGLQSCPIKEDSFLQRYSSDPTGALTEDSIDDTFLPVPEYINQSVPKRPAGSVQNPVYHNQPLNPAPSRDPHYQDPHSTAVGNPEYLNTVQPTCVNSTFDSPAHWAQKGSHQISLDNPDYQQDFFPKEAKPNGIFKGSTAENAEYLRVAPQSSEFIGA
Description: 1) 10 μL of the compounds to be tested and reference compounds diluted to 10 mM were taken into an Echo LDV plate, which were diluted according to the compound profile with Echo.
1) 1×enzyme reaction buffer was prepared: 1× enzyme buffer, 5 mM MgCl2, 1 mM DTT (dithiothreitol), water.
2) A mixed solution of 10 nM enzyme (final concentration of 5 nM) and 2 μM substrate (final concentration of 1 μM) and a solution containing the substrate alone were prepared with the diluted enzyme reaction buffer.
3) 5 μL of the substrate was added into A1-H1, J24-P24 (the number of the well position), and 5 μL of the mixture of the enzyme and substrate was added into the remaining wells.
4) Centrifugation was performed at 1000 rpm at 23° C. for 30 s.
5) Incubation was performed at 23° C. for 15 min.
7) Centrifugation was performed at 1000 rpm at 23° C. for 30 s.
8) Incubation was performed at 23° C. for 60 min.
9) 10 μL of 250 nM TK Antibody-Crypate (a final concentration of 125 nM) and 1×D2 (a final concentration ½ time) prepared with Detection buffer were added.
10) Centrifugation was performed at 1000 rpm at 23° C. for 30 s.
11) Incubation was performed at 23° C. for 60 min.
12) The data was read with Envision, and the ratio was calculated to obtain the IC50 of the compound for inhibiting the enzyme activity.

EGFR (WT) = EGFR (WT) (Homo sapiens (Human), UniProt P00533); test: Enzyme activity experiment (2): EGFR WT enzyme inhibition; format: biochemical
Sequence of EGFR (WT) (P00533 25-1210): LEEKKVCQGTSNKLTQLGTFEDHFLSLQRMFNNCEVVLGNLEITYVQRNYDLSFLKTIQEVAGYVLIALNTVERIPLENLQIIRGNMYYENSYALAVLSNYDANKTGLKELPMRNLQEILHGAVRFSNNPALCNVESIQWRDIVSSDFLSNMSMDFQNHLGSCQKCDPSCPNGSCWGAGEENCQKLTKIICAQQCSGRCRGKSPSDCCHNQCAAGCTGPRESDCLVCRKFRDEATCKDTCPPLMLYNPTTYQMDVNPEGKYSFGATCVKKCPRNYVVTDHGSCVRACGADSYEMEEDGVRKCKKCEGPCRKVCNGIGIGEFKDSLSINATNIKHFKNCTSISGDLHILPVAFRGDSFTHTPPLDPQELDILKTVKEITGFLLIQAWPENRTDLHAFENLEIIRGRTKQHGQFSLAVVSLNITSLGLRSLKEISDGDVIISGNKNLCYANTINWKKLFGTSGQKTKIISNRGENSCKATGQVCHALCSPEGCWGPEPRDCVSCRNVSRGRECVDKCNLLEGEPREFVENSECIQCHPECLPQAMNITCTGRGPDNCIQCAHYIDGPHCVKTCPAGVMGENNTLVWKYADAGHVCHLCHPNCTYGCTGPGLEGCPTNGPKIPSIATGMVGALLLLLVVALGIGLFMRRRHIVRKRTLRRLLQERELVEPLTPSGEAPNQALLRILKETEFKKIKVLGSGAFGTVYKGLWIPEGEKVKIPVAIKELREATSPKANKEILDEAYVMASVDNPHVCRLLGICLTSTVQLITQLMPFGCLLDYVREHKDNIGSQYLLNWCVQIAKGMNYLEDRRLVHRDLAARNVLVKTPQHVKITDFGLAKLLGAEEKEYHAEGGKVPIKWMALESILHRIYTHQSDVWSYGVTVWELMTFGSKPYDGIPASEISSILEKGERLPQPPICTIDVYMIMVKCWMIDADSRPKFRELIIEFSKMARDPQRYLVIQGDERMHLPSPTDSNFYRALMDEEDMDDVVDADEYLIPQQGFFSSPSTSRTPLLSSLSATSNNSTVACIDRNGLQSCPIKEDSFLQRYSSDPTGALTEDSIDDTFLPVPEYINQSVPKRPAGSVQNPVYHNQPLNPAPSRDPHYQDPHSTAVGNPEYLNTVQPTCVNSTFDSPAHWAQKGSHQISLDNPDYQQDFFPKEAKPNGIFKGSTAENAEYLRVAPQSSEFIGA
Description: (§1) 1. Gradient Dilution of the Compound:
(§2) The dilution and transfer of the compounds were completed by Echo by Labcyte Inc., with a three-fold concentration gradient, a total of 11 dose points, and 100 nL of the compounds per well. The maximum concentration of the test compounds in the kinase reaction solutions was 1000 nM. The maximum concentration of the reference compound (Crizotinib & AP26113) in the kinase reaction solution was 1000 nM. The maximum concentration of the reference compound (AZD9291) in the kinase reaction solution was 300 nM.
(§3) The plate was centrifuged at a speed of 1000 rpm for 60 seconds. The test plate was incubated at 23° C. for 15 minutes.
(§4) (3) The test plate was film sealed and incubated at 23° C. for 90 minutes.
(§5) (4) The test plate was added with 2× detection solution (4 nM TK antibody and 125 nM XL665), 10 μL per well, and centrifuged at a speed of 1000 rpm for 60 seconds, and film sealed, which was incubated at 23° C. for 60 minutes.
(§6) (5) The plate was read on the Multi-Mark Detector Envision.

EGFR (C797S/T790M/L858R) = EGFR (C797S/T790M/L858R) (Homo sapiens (Human), UniProt P00533, C797S/L858R/T790M); test: Enzyme activity experiment (2): EGFR (C797S/T790M/L858R) enzyme inhibition; format: biochemical
Sequence of EGFR (C797S/T790M/L858R) (P00533 25-1210 T790M/C797S/L858R): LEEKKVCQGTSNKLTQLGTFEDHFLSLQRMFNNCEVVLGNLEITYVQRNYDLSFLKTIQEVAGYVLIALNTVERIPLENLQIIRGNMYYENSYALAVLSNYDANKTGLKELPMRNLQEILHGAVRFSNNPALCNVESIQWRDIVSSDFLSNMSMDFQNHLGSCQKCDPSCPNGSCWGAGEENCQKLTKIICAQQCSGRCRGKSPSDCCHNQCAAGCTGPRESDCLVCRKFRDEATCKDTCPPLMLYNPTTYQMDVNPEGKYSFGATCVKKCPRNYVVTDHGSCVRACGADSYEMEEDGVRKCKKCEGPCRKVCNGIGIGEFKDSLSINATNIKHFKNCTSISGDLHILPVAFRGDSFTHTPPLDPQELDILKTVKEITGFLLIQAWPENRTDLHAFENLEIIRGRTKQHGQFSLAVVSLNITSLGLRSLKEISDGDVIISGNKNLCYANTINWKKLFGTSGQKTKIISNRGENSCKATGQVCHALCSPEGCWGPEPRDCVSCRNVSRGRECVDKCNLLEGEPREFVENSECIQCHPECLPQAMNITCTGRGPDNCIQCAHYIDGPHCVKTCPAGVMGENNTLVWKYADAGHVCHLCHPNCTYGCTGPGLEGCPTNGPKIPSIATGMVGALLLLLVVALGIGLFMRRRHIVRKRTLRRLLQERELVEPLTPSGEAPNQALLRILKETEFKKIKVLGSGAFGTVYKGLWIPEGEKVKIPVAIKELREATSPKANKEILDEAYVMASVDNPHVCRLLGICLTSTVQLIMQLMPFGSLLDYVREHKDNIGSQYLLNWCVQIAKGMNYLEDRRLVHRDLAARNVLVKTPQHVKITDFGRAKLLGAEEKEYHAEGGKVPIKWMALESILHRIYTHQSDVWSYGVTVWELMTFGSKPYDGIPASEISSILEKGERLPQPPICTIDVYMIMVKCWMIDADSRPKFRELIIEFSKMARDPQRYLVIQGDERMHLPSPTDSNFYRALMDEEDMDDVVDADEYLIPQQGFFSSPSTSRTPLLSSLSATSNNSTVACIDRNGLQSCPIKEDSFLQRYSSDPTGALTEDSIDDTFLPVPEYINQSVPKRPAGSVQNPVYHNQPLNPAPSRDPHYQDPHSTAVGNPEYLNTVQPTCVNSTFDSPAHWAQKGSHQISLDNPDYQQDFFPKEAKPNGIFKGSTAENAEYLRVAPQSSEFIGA
Description: as §1, §2, §3, §4, §5, §6

| SMILES | Tumor volume Day 0 ([1]; 5 mg/kg/day oral) | Tumor volume Day 2 ([1]; 5 mg/kg/day oral) | Tumor volume Day 5 ([1]; 5 mg/kg/day oral) | Tumor volume Day 8 ([1]; 5 mg/kg/day oral) | Tumor volume Day 10 ([1]; 5 mg/kg/day oral) | Tumor volume Day 12 ([1]; 5 mg/kg/day oral) | Tumor volume Day 13 ([1]; 5 mg/kg/day oral) | Tumor volume Day 0 ([1]; 15 mg/kg/day oral) | Tumor volume Day 2 ([1]; 15 mg/kg/day oral) | Tumor volume Day 5 ([1]; 15 mg/kg/day oral) | Tumor volume Day 8 ([1]; 15 mg/kg/day oral) | Tumor volume Day 10 ([1]; 15 mg/kg/day oral) | Tumor volume Day 12 ([1]; 15 mg/kg/day oral) | Tumor volume Day 13 ([1]; 15 mg/kg/day oral) | TGI (the tumor inhibition value) [1] | Tumor volume Day 0 ([1]; 45 mg/kg/day oral) | Tumor volume Day 2 ([1]; 45 mg/kg/day oral) | Tumor volume Day 5 ([1]; 45 mg/kg/day oral) | Tumor volume Day 8 ([1]; 45 mg/kg/day oral) | Tumor volume Day 10 ([1]; 45 mg/kg/day oral) | further results |
| --- | --- | --- | --- | --- | --- | --- | --- | --- | --- | --- | --- | --- | --- | --- | --- | --- | --- | --- | --- | --- | --- |
| COc1cc(N2CCC(N3CCN(C)CC3)CC2)c(C)cc1Nc1ncc(Br)c(Nc2ccc3nccnc3c2P(C)(C)=O)n1 [Compound 34] | 84 mm^3 | 108 mm^3 | 212 mm^3 | 395 mm^3 | 505 mm^3 | 748 mm^3 | 881 mm^3 | 84 mm^3 | 76 mm^3 | 107 mm^3 | 126 mm^3 | 176 mm^3 | 292 mm^3 | 326 mm^3 | 101% | 84 mm^3 | 56 mm^3 | 32 mm^3 | 35 mm^3 | 42 mm^3 | Tumor volume Day 12 ([1]; 45 mg/kg/day oral): 73 mm^3; Tumor volume Day 13 ([1]; 45 mg/kg/day oral): 68 mm^3 |
| CCc1cc(Nc2ncc(Br)c(Nc3ccc4nccnc4c3P(C)(C)=O)n2)c(OC)cc1N1CCC(N2CCN(C)CC2)CC1 [Compound 41] | 84 mm^3 | 103 mm^3 | 203 mm^3 | 348 mm^3 | 485 mm^3 | 707 mm^3 | 814 mm^3 | 84 mm^3 | 68 mm^3 | 69 mm^3 | 82 mm^3 | 115 mm^3 | 146 mm^3 | 211 mm^3 | 109% | 84 mm^3 | 47 mm^3 | 24 mm^3 | 7 mm^3 | 4 mm^3 | IC50 [2]: 212 pM; IC50 (EGFR (WT)): 5120 pM; IC50 (EGFR (C797S/T790M/L858R)): 260 pM; Tumor volume Day 12 ([1]; 45 mg/kg/day oral): 0 mm^3; Tumor volume Day 13 ([1]; 45 mg/kg/day oral): 0 mm^3 |

From patent US11390625B2, “Aryl-phosphorus-oxygen compound as EGFR kinase inhibitor” (Chia Tai Tianqing Pharmaceutical Group Co., Ltd., priority 2017, dated 2022)
